Consider five molecules from BindingDB's records for doi:10.1002/cmdc.200500008 (Philipps-Universität Marburg, 2006).

One may read the IC50 as the midpoint of a concentration-inhibition curve. A low value points to higher potency.

One assay concerns the target Gag-Pol polyprotein (Human immunodeficiency virus type 1 group M subtype B (isolate BRU/LAI), UniProt P03367). Description: Enzymatic Assay. Particulars: pH 5.5. How it is done: Binding constants for inhibition of HIV protease were determined as previously described.
The target of another assay is Cathepsin D (Homo sapiens, UniProt P07339). Description: Enzymatic Assay. The conditions noted are these: pH 5.5.
Cathepsin D, sequence (P07339 65-162 limits assumed): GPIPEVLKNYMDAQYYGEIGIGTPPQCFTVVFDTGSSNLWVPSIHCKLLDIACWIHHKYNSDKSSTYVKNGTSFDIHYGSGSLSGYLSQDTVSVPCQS
Cathepsin D, sequence (P07339 169-412 limits assumed): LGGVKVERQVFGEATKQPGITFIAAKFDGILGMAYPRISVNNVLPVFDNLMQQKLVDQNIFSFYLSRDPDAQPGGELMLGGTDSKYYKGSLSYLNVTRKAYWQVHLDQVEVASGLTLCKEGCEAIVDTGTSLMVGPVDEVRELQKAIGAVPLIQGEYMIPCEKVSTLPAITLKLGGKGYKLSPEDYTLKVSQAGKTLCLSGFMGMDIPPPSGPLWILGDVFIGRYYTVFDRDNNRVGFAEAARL

A value given as a limit tells only on which side of the number the result lay.

For `Cc1cccc(C)c1OCC(=O)N(Cc1ccccc1)CC1CNC[C@H]1CN(CC(C)C)S(=O)(=O)c1ccccc1` (stereo not given in full) [Aspartyl protease inhibitor, 13], the values for the concentration for half-maximal inhibition (IC50) against Gag-Pol polyprotein and against Cathepsin D were 2.2 µM and greater than 40 µM, respectively.

Turning to `Cc1cccc(C)c1OCC(=O)N(Cc1ccccc1)CC1CNC[C@H]1CN(CC(C)C)S(=O)(=O)c1ccc(N)cc1` (stereo not given in full) [Aspartyl protease inhibitor, 14], the figures for the IC50 on Gag-Pol polyprotein and against Cathepsin D were 3.3 µM and greater than 40 µM, respectively.

For the molecule `Cc1ccc(S(=O)(=O)N(CC(C)C)C[C@@H]2CNCC2CN(Cc2ccccc2)C(=O)COc2c(C)cccc2C)cc1` (stereo not given in full) [Aspartyl protease inhibitor, 15], the results for the IC50 at Gag-Pol polyprotein and on Cathepsin D were 12.1 µM and greater than 40 µM, respectively.

In the case of `COc1cc(Br)c(OC(=O)N(Cc2ccccc2)CC2CNC[C@H]2CN(CCc2ccc(Cl)cc2Cl)C(=O)CCCc2ccccc2)cc1OC` (stereo not given in full) [Aspartyl protease inhibitor, 16], the IC50 against Gag-Pol polyprotein was determined as 19.8 µM; on Cathepsin D, 1.05 µM.

Consider `COc1cc(Br)c(OC(=O)N(Cc2ccccc2)CC2CNC[C@H]2CN(CCc2ccc(Cl)cc2Cl)C(=O)CCN2C(=O)c3ccccc3C2=O)cc1OC` (stereo not given in full) [Aspartyl protease inhibitor, 17], for which the IC50 at Gag-Pol polyprotein was determined as 22.1 µM; against Cathepsin D it was 0.57 µM.
